Patent US9138408B2, “Use of taurine for treating alopecia” (L'OREAL, priority 2002, dated 2015)
Entries after “also recorded” stand apart in the source; their conditions may differ.

Tested on: normal human dermal fibroblasts (NHDF pool PF2)
Test: Incorporation of thymidine, proline and leucine in macromolecules neosynthesized by fibroblasts in culture
Type: cell-based
Conditions: for Leucine incorporation / Proline incorporation / Thymidine incorporation: NHDF in vitro culture
Procedure: A study was performed with the aim of evaluating, via a screening method, the effects of the compounds on the growth of fibroblasts and the synthesis of the major constituents of the extracellular matrix. The technique made it possible to study and evaluate the advantage of taurine on this cell metabolism (T. Shigematsu et al. Biochimica et Biophysica Acta 1200 (1994) 79-83).
A pool of normal human dermal fibroblasts (NHDF pool PF2, used at the eighth passage) was cultured under standard conditions in a medium: DMEM, 2 mM L-glutamine, 50 IU/ml/50 […] penicillin/streptomycin, 0.5% fetal calf serum.
Taurine was tested at concentrations of 10 mM and 1 mM in a sterile culture medium, against an untreated control blank.
The figures in bold are those for which there is a significant variation (stat. sign. meaning statistical significance: p<0.005). The results are expressed as a percentage of the control.

[1] = at the two concentrations (1 mM, 10 mM), fibroblasts

Which results are given for `NCCS(=O)(=O)O` [taurine, Taurine]?
Leucine incorporation (1 mM taurine): 100 % control; Proline incorporation (1 mM taurine): 88 % control; Thymidine incorporation (1 mM taurine): 89 % control; Leucine incorporation (10 mM taurine): 105 % control; Proline incorporation (10 mM taurine): 87 % control; Thymidine incorporation (10 mM taurine): 90 % control; incorporation of leucine (representative of noncollagen protein synthesis), in words [1]: did not significantly modify; also recorded: without impairing that of leucine; incorporation of proline by the fibroblasts, in words [1]: did significantly inhibit; also recorded: reduces the incorporation of proline; incorporation of thymidine (representative of cell proliferation), in words [1]: did not significantly modify
